Laboratory results: US20130210034A1, “COMPLEX PHOSPHOPROTEIN ACTIVATION PROFILES” (BECKMAN COULTER, INC., priority 2005, published 2013)
Several values for one entry are separate records, joined by “and”; a condition that tells them apart may be missing. Equal entries are not always repeated.

Legend:
Assay in all cases: Cytokine-stimulated phosphorylation in immunophenotypically defined cell populations from healthy donor BM (flow cytometry);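 as to pAKT S/N ratio: Phosphoprotein MFI normalized to lymphocyte MFI as internal negative control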;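 as to pERK S/N ratio: Phosphoprotein MFI normalized to lymphocyte MFI as internal negative control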
Type in all cases: cell-based, human
[1] = test system: pAKT; conditions: for pAKT Percent (%) Responding Cells, Mean / pAKT S/N ratio: healthy donor BM, mean ± SD; for pAKT, Normal Sample: Table 7 comparison value;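 as to pAKT S/N ratio: Phosphoprotein MFI normalized to lymphocyte MFI as internal negative control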
Procedure: (§1) Bone marrow (BM) samples were collected in 7.5 mL Iscove's modified Dulbecco's medium (IMDM) supplemented with 100U penicillin, 0.01 mg/mL streptomycin, and 70 μg/mL heparin sodium salt from 10 patients undergoing hip replacement surgery, who were otherwise healthy. These patients were from a pool of surgery patients, age 49 to 77, and represented […] patients. […] These BM samples were rinsed twice with IMDM to release cells, filtered using a 100 μm Nylon cell strainer to remove marrow particles, and centrifuged for at RT fro 7 minutes at 200 g. The cell pellet was washed twice with sterile IMDM to remove traces of fat and re-suspended in IMDM to a concentration of 3×10^7 cells/mL.
(§2) To assess the signal transduction response after growth factor simulation, a series comprising two sets of tubes including about 3×10^6 cells/100 μL were incubated at 37° C. for 30 minutes. After this pre-incubation period, tubes with then processes with either a stimulant or inhibitor. […] To examine the effects of protein phosphorylation inhibition, tubes were incubated with an inhibitor cocktail comprising 100 μM/100 μL UO126, 1 μM/100 μL LY294002, and 1 μM/100 μL rapamycin. One unstimulated tube receiving no stimulant or inhibitor was processed to assess basal levels of phospho-protein expression. After stimulation the cells were immediately fixed in 10% formaldehyde solution at 37° C. Pre-labeling with CD13, CD16 and CD64 antibodies was carried out 20 minutes prior to formaldehyde fixation. After fixation, one set of tubes was permeabilized without methanol for pAKT, pERK and pS6 staining and the other for 80% methanol permeabilized for pSTAT3 and pSTAT5 staining. After permeablization, the cells were washed in PBS with 2% BSA and blocked by re-suspended in 75 μL of PBS comprising 25% heat inactivated normal mouse serum, 25% normal rabbit serum. To stain cells with fluorescent conjugated monoclonal antibodies, samples were incubated on ice for 45 minutes in 100 μL of an antibody staining solution including either: 1) CD15-Pacific Orange, CD34-Phycoerythrin-Texas Red, CD117-Phycoerythrin-Cyanin 5.5, CD45-Allophycocyanin-Alexa Fluor 750 (or CD45-Pacific Orange, in which case CD15-Pacific Orange was omitted), pS6-Pacific Blue, pERK-Alexa Fluor 488 and pAKT-Alexa Fluor 647 or 2) CD15-Pacific Orange, CD34-Phycoerythrin-Texas Red, CD117-Phycoerythrin-Cyanin 5.5, CD45-Allophycocyanin-Alexa Fluor 750 or CD45-Pacific Blue, pSTAT3-Alexa Fluor 488 and pSTAT5-Phycoerythrin. The stained cells were washed twice with ice cold PBS containing 2% BSA and centrifuged at 800 g for 6 minutes at 4° C. The supernatant was discarded and cells re-suspended in 250 μL of chilled wash buffer for data acquisition. Stained cells were examined using either GALIOS flow cytometer (Beckman Coulter) or CYAN ADP (Beckman Coulter) equipped with 488 nm, 405 nm and 635 nm lasers to detect the degree of fluorescence. Data were analyzed using FCS Express (De Novo Software, CA) analysis software.
(§3) Specific phosphoprotein expression of pERK, pS6, pAKT, pSTAT5, and pSTAT3 was examined in seven discrete phenotypically defined populations based on 7-color immunophenotyping (FIG. 1). The percent of responding (phosphorprotein positive) cells for each of these populations was determined from individual single parameter histograms based on a fixed integration region set on the inhibitor treated control at about 3% positives.

[2] = test system: pERK; conditions: for pERK Percent (%) Responding Cells, Mean / pERK S/N ratio: healthy donor BM, mean ± SD;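 as to pERK S/N ratio: Phosphoprotein MFI normalized to lymphocyte MFI as internal negative control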
Procedure: as §1, §2, §3

[3] = test system: pS6; conditions: for pS6 Percent (%) Responding Cells, Mean / pS6 S/N ratio: healthy donor BM, mean ± SD
Procedure: as §1, §2, §3

[4] = test system: pSTAT3; conditions: healthy donor BM, mean ± SD
Procedure: as §1, §2, §3

[5] = test system: pSTAT5; conditions: for pSTAT5 Percent (%) Responding Cells, Mean / pSTAT5 S/N ratio: healthy donor BM, mean ± SD
Procedure: as §1, §2, §3

[6] = Table 7 comparison value, matches percent responding CD34^+ cells of Tables 1-5

## Granulocyte-Macrophage Colony-Stimulating Factor [GM-CSF]
[1]; CD34^+ (CD34^+/CD117^+ cells)
  pAKT Percent (%) Responding Cells, Mean: 22.5 ± 23.4%
  pAKT S/N ratio: 3.2 ± 3.3
[1]; CD117^+ (CD34^−/CD117^+ cells)
  pAKT Percent (%) Responding Cells, Mean: 13.3 ± 23.7%
  pAKT S/N ratio: 2.2 ± 1.3
[1]; G1, immature myeloid cells
  pAKT Percent (%) Responding Cells, Mean: 11.2 ± 19.8%
  pAKT S/N ratio: 3.0 ± 1.6
[1]; G2, intermediate myeloid cells
  pAKT Percent (%) Responding Cells, Mean: 17.6 ± 26.1%
  pAKT S/N ratio: 3.2 ± 1.6
[1]; G3, mature myeloid cells
  pAKT Percent (%) Responding Cells, Mean: 17.5 ± 26.0%
  pAKT S/N ratio: 3.7 ± 1.9
[1]; Mono, monocytes
  pAKT Percent (%) Responding Cells, Mean: 17.6 ± 27.3%
  pAKT S/N ratio: 3.6 ± 2.3
[1]
  pAKT, Normal Sample: 16.2
[2]; CD34^+ (CD34^+/CD117^+ cells)
  pERK Percent (%) Responding Cells, Mean: 30.1% and 30.1 ± 11.5%
  pERK S/N ratio: 10.6 ± 4.4
[2]; CD117^+ (CD34^−/CD117^+ cells)
  pERK S/N ratio: 3.8 ± 0.4
[2]; G1, immature myeloid cells
  pERK Percent (%) Responding Cells, Mean: 53.9% and 53.9 ± 20.8%
  pERK S/N ratio: 6.2 ± 1.8
[2]; G2, intermediate myeloid cells
  pERK Percent (%) Responding Cells, Mean: 91.5 ± 16.0%
  pERK S/N ratio: 9.4 ± 2.4
[2]; G3, mature myeloid cells
  pERK Percent (%) Responding Cells, Mean: 91.5% and 90.7 ± 15.0%
  pERK S/N ratio: 11.3 ± 3.1
[2]; Mono, monocytes
  pERK Percent (%) Responding Cells, Mean: 52.0 ± 22.6%
  pERK S/N ratio: 11.4 ± 4.5
[3]; CD34^+ (CD34^+/CD117^+ cells)
  pS6 Percent (%) Responding Cells, Mean: 60.1% and 60.1 ± 14.1%
  pS6 S/N ratio: 35.7 ± 31.7
[3]; CD117^+ (CD34^−/CD117^+ cells)
  pS6 Percent (%) Responding Cells, Mean: 38.5 ± 11.5%
  pS6 S/N ratio: 52.7 ± 44.0
[3]; G1, immature myeloid cells
  pS6 Percent (%) Responding Cells, Mean: 3.4 ± 1.3%
  pS6 S/N ratio: 5.1 ± 3.2
[3]; G2, intermediate myeloid cells
  pS6 Percent (%) Responding Cells, Mean: 11.3 ± 15.9%
  pS6 S/N ratio: 5.7 ± 3.7
[3]; G3, mature myeloid cells
  pS6 Percent (%) Responding Cells, Mean: 8.3 ± 7.0%
  pS6 S/N ratio: 5.7 ± 3.6
[3]; Mono, monocytes
  pS6 Percent (%) Responding Cells, Mean: 76.9 ± 11.8%
  pS6 S/N ratio: 25.8 ± 20.8
[4]; CD34^+ (CD34^+/CD117^+ cells)
  pSTAT3 Percent (%) Responding Cells, Mean: 10.4 ± 7.9%
  pSTAT3 S/N ratio: 1.7 ± 0.2
[4]; CD117^+ (CD34^−/CD117^+ cells)
  pSTAT3 Percent (%) Responding Cells, Mean: 7.9 ± 8.7%
  pSTAT3 S/N ratio: 2.6 ± 0.8
[4]; G1, immature myeloid cells
  pSTAT3 Percent (%) Responding Cells, Mean: 58.7% and 58.7 ± 39.9%
  pSTAT3 S/N ratio: 6.8 ± 2.5
[4]; G2, intermediate myeloid cells
  pSTAT3 Percent (%) Responding Cells, Mean: 59.1 ± 30.4%
  pSTAT3 S/N ratio: 7.3 ± 2.1
[4]; G3, mature myeloid cells
  pSTAT3 Percent (%) Responding Cells, Mean: 76.0 ± 30.8%
  pSTAT3 S/N ratio: 8.8 ± 2.7
[4]; Mono, monocytes
  pSTAT3 S/N ratio: 2.3 ± 0.3
[5]; CD34^+ (CD34^+/CD117^+ cells)
  pSTAT5 Percent (%) Responding Cells, Mean: 74.7%
  pSTAT5 S/N ratio: 19.8 ± 9.7
[5]; CD117^+ (CD34^−/CD117^+ cells)
  pSTAT5 Percent (%) Responding Cells, Mean: 58.2 ± 11.8%
[5]; G2, intermediate myeloid cells
  pSTAT5 Percent (%) Responding Cells, Mean: 98.8 ± 0.4%
  pSTAT5 S/N ratio: 18.3 ± 5.5
[5]; Mono, monocytes
  pSTAT5 S/N ratio: 14.7 ± 4.5
[5]; [6]
  pSTAT5, Normal Sample: 74.7 and 75.1

## Stem Cell Factor [SCF]
[1]; CD34^+ (CD34^+/CD117^+ cells)
  pAKT Percent (%) Responding Cells, Mean: 58.0% and 58.0 ± 27.3%
  pAKT S/N ratio: 7.5 and 7.5 ± 5.7
[1]; CD117^+ (CD34^−/CD117^+ cells)
  pAKT Percent (%) Responding Cells, Mean: 60.6% and 60.6 ± 33.5%
  pAKT S/N ratio: 7.3 ± 5.4
[1]; G1, immature myeloid cells
  pAKT Percent (%) Responding Cells, Mean: 2.9 ± 2.4%
  pAKT S/N ratio: 2.2 ± 1.1
[1]; G2, intermediate myeloid cells
  pAKT Percent (%) Responding Cells, Mean: 3.9 ± 3.9%
  pAKT S/N ratio: 2.3 ± 1.0
[1]; G3, mature myeloid cells
  pAKT Percent (%) Responding Cells, Mean: 4.2 ± 3.0%
  pAKT S/N ratio: 2.6 ± 1.2
[1]; Mono, monocytes
  pAKT Percent (%) Responding Cells, Mean: 6.5 ± 8.2%
  pAKT S/N ratio: 2.4 ± 1.0
[1]
  pAKT, Normal Sample: 58.0
[2]; CD34^+ (CD34^+/CD117^+ cells)
  pERK Percent (%) Responding Cells, Mean: 89.8% and 89.8 ± 6.9%
  pERK S/N ratio: 13.3 and 13.3 ± 4.9
[2]; CD117^+ (CD34^−/CD117^+ cells)
  pERK Percent (%) Responding Cells, Mean: 67.7% and 67.7 ± 20.1%
  pERK S/N ratio: 8.6 ± 3.2
[2]; G1, immature myeloid cells
  pERK Percent (%) Responding Cells, Mean: 1.6 ± 0.8%
  pERK S/N ratio: 2.9 ± 0.6
[2]; G2, intermediate myeloid cells
  pERK Percent (%) Responding Cells, Mean: 2.8 ± 2.1%
  pERK S/N ratio: 2.7 ± 0.5
[2]; G3, mature myeloid cells
  pERK Percent (%) Responding Cells, Mean: 6.5 ± 7.2%
  pERK S/N ratio: 3.1 ± 0.6
[2]; Mono, monocytes
  pERK Percent (%) Responding Cells, Mean: 13.6 ± 3.6%
  pERK S/N ratio: 3.2 ± 2.1
[2]; Table 7 comparison value, matches S/N ratio of Table 1
  pERK, Normal Sample (first AML5 line): 13.3
[2]; [6]
  pERK, Normal Sample: 89.8
[3]; CD34^+ (CD34^+/CD117^+ cells)
  pS6 Percent (%) Responding Cells, Mean: 81.7% and 81.7 ± 16.3%
  pS6 S/N ratio: 48.4 and 48.4 ± 39.3
[3]; CD34^−CD117^+ cells, normal BM, non-homogeneous response
  pS6 fraction positive responding: 53.8%
[3]; CD117^+ (CD34^−/CD117^+ cells)
  pS6 Percent (%) Responding Cells, Mean: 51.9% and 51.9 ± 16.9%
  pS6 S/N ratio: 108.2 ± 94.9
[3]; G1, immature myeloid cells
  pS6 Percent (%) Responding Cells, Mean: 2.1 ± 1.4%
  pS6 S/N ratio: 3.3 ± 1.9
[3]; G2, intermediate myeloid cells
  pS6 Percent (%) Responding Cells, Mean: 2.1 ± 1.2%
  pS6 S/N ratio: 2.9 ± 1.8
[3]; G3, mature myeloid cells
  pS6 Percent (%) Responding Cells, Mean: 3.8 ± 2.6%
  pS6 S/N ratio: 3.5 ± 2.3
[3]; Mono, monocytes
  pS6 Percent (%) Responding Cells, Mean: 43.5 ± 19.9%
  pS6 S/N ratio: 11.2 ± 12.3
[4]; CD34^+ (CD34^+/CD117^+ cells)
  pSTAT3 Percent (%) Responding Cells, Mean: 7.3 ± 4.3%
  pSTAT3 S/N ratio: 1.9 ± 0.2
[4]; CD117^+ (CD34^−/CD117^+ cells)
  pSTAT3 Percent (%) Responding Cells, Mean: 2.6 ± 1.4%
  pSTAT3 S/N ratio: 2.5 ± 0.6
[4]; G1, immature myeloid cells
  pSTAT3 Percent (%) Responding Cells, Mean: 3.0 ± 3.5%
  pSTAT3 S/N ratio: 3.3 ± 0.5
[4]; G2, intermediate myeloid cells
  pSTAT3 Percent (%) Responding Cells, Mean: 2.2 ± 1.8%
  pSTAT3 S/N ratio: 3.3 ± 0.5
[4]; G3, mature myeloid cells
  pSTAT3 Percent (%) Responding Cells, Mean: 4.7 ± 4.0%
  pSTAT3 S/N ratio: 3.6 ± 0.6
[4]; Mono, monocytes
  pSTAT3 Percent (%) Responding Cells, Mean: 4.4 ± 2.0%
  pSTAT3 S/N ratio: 2.4 ± 0.3
[5]; CD34^+ (CD34^+/CD117^+ cells)
  pSTAT5 Percent (%) Responding Cells, Mean: 11.6 ± 3.0%
  pSTAT5 S/N ratio: 1.5 ± 0.9
[5]; CD117^+ (CD34^−/CD117^+ cells)
  pSTAT5 Percent (%) Responding Cells, Mean: 7.4 ± 4.7%
  pSTAT5 S/N ratio: 2.2 ± 0.7
[5]; G1, immature myeloid cells
  pSTAT5 Percent (%) Responding Cells, Mean: 6.8 ± 8.0%
  pSTAT5 S/N ratio: 3.1 ± 0.7
[5]; G2, intermediate myeloid cells
  pSTAT5 Percent (%) Responding Cells, Mean: 4.9 ± 5.6%
  pSTAT5 S/N ratio: 3.2 ± 0.7
[5]; G3, mature myeloid cells
  pSTAT5 Percent (%) Responding Cells, Mean: 6.9 ± 6.7%
  pSTAT5 S/N ratio: 3.8 ± 0.8
[5]; Mono, monocytes
  pSTAT5 Percent (%) Responding Cells, Mean: 9.5 ± 13.8%
  pSTAT5 S/N ratio: 2.5 ± 0.6
